These results are taken from EP2818472A1, “Imidazo[4,5-c]pyridine and pyrrolo[3,2-c]pyridine compounds as G-protein-coupled receptor kinase 5 (GRK5) modulators” (Max-Planck-Gesellschaft zur Förderung der Wissenschaften …, priority 2013, dated 2014).

The experiment has as its system beta-TC6 cells. Nature of the experiment: Insulin HTRF assay (relative activity Ar) in beta-TC6 cells. Conditions: insulin HTRF, supernatant of beta-TC6 cells, incubation with test compound at 37°C for 2, 3, 4h; for Emax: Mus musculus, Beta-TC6, 4 h, read-out: Ar (relative activity). Format: cell-based, mouse. The method, boiled down: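 beta-TC6 cells (15k/well, seeded 24 or 48 h) washed, then exposed to compound in induction buffer (0.5% DMSO final) for 2, 3 or 4 h at 37°C.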
On the technique in general: Time-resolved FRET reads energy transfer from a long-lived donor to a nearby acceptor.

Bounds are passed on as bounds.

In the case of `Cc1cccc(CNc2nc3cnc(Nc4cccc(NS(C)(=O)=O)c4)cc3n2C)c1` [Compound 587, N-[3-[[1-methyl-2-(m-tolylmethylamino)imidazo[4,5-c]pyridin-6-yl]amino]phenyl]methanesulfonamide], the Emax fell in the range of 50 to 100%. For the compound `CN(C)C(=O)c1ccc(-c2cc3c(N4CCOCC4)nccc3n2C)cc1` [Compound 188, N,N-dimethyl-4-(1-methyl-4-morpholino-pyrrolo[3,2-c]pyridin-2-yl)benzamide], the Emax was 0 to 30%.

Turning to `COc1cccc(Nc2cc3[nH]c(-c4ccc(C(=O)N(C)C)cc4)cc3cn2)c1` [Compound 19, 4-[6-(3-methoxyanilino)-1H-pyrrolo[3,2-c]pyridin-2-yl]-N,N-dimethyl-benzamide], the Emax was 50 to 100%.

As for `Cn1c(-c2cccc(Cl)c2)cc2c(N3CCOCC3)nccc21` [Compound 195, 4-[2-(3-chlorophenyl)-1-methyl-pyrrolo[3,2-c]pyridin-4-yl]morpholine], the Emax was 30 to 50%. As to `CNc1nc2cnc(-c3ccc(CO)cc3)cc2n1-c1ccccc1` [Compound 510, [4-[2-(methylamino)-1-phenyl-imidazo[4,5-c]pyridin-6-yl]phenyl]methanol], the “Ar (relative activity)” value was “++ (30 % ≤ Ar < 50 %)”. In the case of `COc1ccc(Nc2nccc3[nH]c(-c4ccc(F)c(F)c4)nc23)cc1OC` [Compound 440, 2-(3,4-difluorophenyl)-N-(3,4-dimethoxyphenyl)-1H-imidazo[4,5-c]pyridin-4-amine], the Emax was 30 to 50%. For `COc1ccc(-c2nc3c(N4CCN(C)CC4)nccc3[nH]2)cc1OC` [Compound 346, 2-(3,4-dimethoxyphenyl)-4-(4-methylpiperazin-1-yl)-1H-imidazo[4,5-c]pyridine], the Emax lay within 50 to 100%. For `CNc1nc2cnc(Nc3ccc(OC)c(O)c3)cc2n1Cc1ccccc1` [Compound 536, 5-[[1-benzyl-2-(methylamino)imidazo[4,5-c]pyridin-6-yl]amino]-2-methoxy-phenol], the Emax fell in the range of 50 to 100%. Same read-out and setting: next, `CC(=O)c1cccc(Nc2nccc3c2cc(-c2ccsc2)n3C)c1` [Compound 288, 1-[3-[[1-methyl-2-(3-thienyl)pyrrolo[3,2-c]pyridin-4-yl]amino]phenyl]ethanone]: 30 to 50%; `c1ccc(-c2cc3cnc(N4CCOCC4)cc3[nH]2)cc1` [Compound 181, 4-(2-phenyl-1H-pyrrolo[3,2-c]pyridin-6-yl)morpholine]: > 100%. Turning to `CC(=O)Nc1cccc(-c2cc3c(cn2)nc(NCc2cccc(C)c2)n3C)c1` [Compound 580, N-[3-[1-methyl-2-(m-tolylmethylamino)imidazo[4,5-c]pyridin-6-yl]phenyl]acetamide], the Emax is 30 to 50%. On to `CNc1nc2cnc(Nc3ccc(N4CCOCC4)cc3)cc2n1Cc1ccco1` [Compound 521, 1-(2-furylmethyl)-N2-methyl-N6-(4-morpholinophenyl)imidazo[4,5-c]pyridine-2,6-diamine], for which the Emax is > 100%.

Take `Fc1ccc(Nc2nccc3[nH]c(-c4ccccc4Cl)nc23)cc1Cl` [Compound 461, N-(3-chloro-4-fluoro-phenyl)-2-(2-chlorophenyl)-1H-imidazo[4,5-c]pyridin-4-amine]: the Emax is 0 to 30%.

Regarding `CN(C)c1ccc(-c2cc3c(Nc4ccc(C(N)=O)cc4)nccc3n2C)cc1` [Compound 227, 4-[[2-(4-dimethylaminophenyl)-1-methyl-pyrrolo[3,2-c]pyridin-4-yl]amino]benzamide], the Emax was in the range of 30 to 50%. On the same count and under the same terms, the same measure for `COc1ccc(-c2nc3c(Nc4ccccc4)nccc3[nH]2)cc1` [Compound 393, 2-(4-methoxyphenyl)-N-phenyl-1H-imidazo[4,5-c]pyridin-4-amine]: 30 to 50%. On to `CNc1nc2cnc(Nc3ccc4c(c3)OCO4)cc2n1Cc1ccco1` [Compound 524, N6-(1,3-benzodioxol-5-yl)-1-(2-furylmethyl)-N2-methyl-imidazo[4,5-c]pyridine-2,6-diamine], for which the Emax fell in the range of 50 to 100%. As for `COc1cccc(-c2cc3c(Nc4ccc(C(=O)N(C)C)cc4)nccc3[nH]2)c1` [Compound 313, 4-[[2-(3-methoxyphenyl)-1H-pyrrolo[3,2-c]pyridin-4-yl]amino]-N,N-dimethyl-benzamide], the Emax was > 100%.

Consider `CNc1nc2cnc(Nc3ccc(OC(F)(F)F)cc3)cc2n1CCOC` [Compound 773, 1-(2-methoxyethyl)-N2-methyl-N6-[4-(trifluoromethoxy)phenyl]imidazo[4,5-c]pyridine-2,6-diamine], for which the Emax was in the range of 0 to 30%. For the compound `CNc1nc2cnc(Nc3ccc(SC)cc3)cc2n1Cc1ccc(OC)c(OC)c1` [Compound 675, 1-[(3,4-dimethoxyphenyl)methyl]-N2-methyl-N6-(4-methylsulfanylphenyl)imidazo[4,5-c]pyridine-2,6-diamine], the Emax lay within 50 to 100%.

Turning to `CN1CCN(c2ccc(Nc3nccc4[nH]c(-c5ccsc5)cc34)cc2)CC1` [Compound 257, N-[4-(4-methylpiperazin-1-yl)phenyl]-2-(3-thienyl)-1H-pyrrolo[3,2-c]pyridin-4-amine], the Emax lay within 30 to 50%. For the compound `CN(C)C(=O)c1ccc(Nc2nccc3[nH]c(-c4ccccc4)cc23)cc1` [Compound 322, N,N-dimethyl-4-[(2-phenyl-1 H-pyrrolo[3,2-c]pyridin-4-yl)amino]benzamide], the Emax is > 100%. The same measure, in the same setting: next, `COc1cncc(-c2cc3[nH]c(NCC4CCCO4)nc3cn2)c1` (centres unmarked) [Compound 881, 6-(5-methoxy-3-pyridyl)-N-(tetrahydrofuran-2-ylmethyl)-1H-imidazo[4,5-c]pyridin-2-amine]: 0 to 30%; `CN(C)C(=O)c1ccc(-c2cc3cnc(Nc4cccc(NS(C)(=O)=O)c4)cc3n2C)cc1` [Compound 55, 4-[6-[3-(methanesulfonamido)anilino]-1-methyl-pyrrolo[3,2-c]pyridin-2-yl]-N,N-dimethyl-benzamide]: 50 to 100%; `COc1ccc(OC)c(CCNc2nc3cnc(-c4cccc(NS(C)(=O)=O)c4)cc3n2C)c1` [Compound 825, N-[3-[2-[2-(2,5-dimethoxyphenyl)ethylamino]-1-methyl-imidazo[4,5-c]pyridin-6-yl]phenyl]methanesulfonamide]: 0 to 30%. For the compound `CNc1nc2cnc(Nc3ccc(OC)cc3OC)cc2n1-c1cc(OC)c(OC)c(OC)c1` [Compound 486, N6-(2,4-dimethoxyphenyl)-N2-methyl-1-(3,4,5-trimethoxyphenyl)imidazo[4,5-c]pyridine-2,6-diamine], the Emax fell in the range of 30 to 50%. With `COc1cccc(-c2cc3c(Nc4ccc(OC)nc4)nccc3[nH]2)c1` [Compound 307, 2-(3-methoxyphenyl)-N-(6-methoxy-3-pyridyl)-1H-pyrrolo[3,2-c]pyridin-4-amine], the Emax lay within 50 to 100%. On to `COc1ccc(-c2nc3c(NCCc4ccccn4)nccc3[nH]2)cc1` [Compound 394, 2-(4-methoxyphenyl)-N-[2-(2-pyridyl)ethyl]-1H-imidazo[4,5-c]pyridin-4-amine], for which the Emax was in the range of 30 to 50%. For the compound `Cn1cc(-c2cc3cnc(Nc4cccc(F)c4)cc3n2C)cn1` [Compound 151, N-(3-fluorophenyl)-1-methyl-2-(1-methylpyrazol-4-yl)pyrrolo[3,2-c]pyridin-6-amine], the Emax lay in the range of 50 to 100%.

On to `COc1cc(Nc2cc3c(cn2)nc(Cc2cccnc2)n3C)cc(OC)c1OC` [Compound 729, 1-methyl-2-(3-pyridylmethyl)-N-(3,4,5-trimethoxyphenyl)imidazo[4,5-c]pyridin-6-amine], for which the Emax was 30 to 50%.
